Values quoted from earlier work, collected in patent US20210008081A1, “ORAL LIQUID FORMULATIONS OF ABIRATERONE” (LEIUTIS PHARMACEUTICALS PVT, LTD, priority 2018, published 2021).

Solubility in organic solvents: sparingly soluble to freely soluble
Solubility in water: practically insoluble
Biopharmaceutical classification system class (low solubility low permeability): class IV
Solubility in aqueous media (over a wide range of pH): practically insoluble
Structure (SMILES): CC(=O)O[C@H]1CC[C@@]2(C)C(=CC[C@@H]3[C@@H]2CC[C@]2(C)C(c4cccnc4)=CC[C@@H]32)C1 [Abiraterone acetate]
